Assay results: US11419801B2, “Personal care composition” (Conopco, Inc., priority 2017, dated 2022)

system: IL-6; assay: Anti-inflammation efficacy in THP-1 in vitro assay: IL-6 in supernatant of PMA-differentiated, LPS-stimulated THP-1 monocytes (BD Elisa kit); format: cell-based; conditions: Table 1, LPS 1 μg/ml, 24 hours incubation, concentration of active(s) as given per example, lower = higher anti-inflammatory potential
Description: The following procedure was used to test the anti-inflammation efficacy of the various actives alone as well as in combination. In the examples, HR means hexyl resorcinol, DHA means docosahexaenoic acid. • (i) 5×10^5 THP-1 monocytes were placed into 24-well plates, with 100 nM […] in the culture media to differentiate the cells. • (ii) After 72 hours differentiation, treatments as follows were applied to the cells. […] (2) LPS-1 μg/ml; (3) Dex-50 nM; (4) DHA-200 μM; (5) DHA-100 μM; (6) DHA-20 μM; (7) HR-50 μM; (8) HR-25 μM; (9) HR-100 μM; […] (11) DHA-100 μM+HR-50 μM; (12) DHA-100 μM+HR-25 μM; (13) DHA-20 μM+HR-100 μM (14) DHA-20 μM+HR-10 μM. • (iii) After 24 hours incubation the supernatants were collected. • (iv) Then IL-6 concentration was tested in the supernatant by BD Elisa kit. The lower the percentage, the higher the anti-inflammatory potential. […] Further information about the experiment nos 12 to 24 is as follows: • Example 12: […] Combination of 50 μM DHA and 12.5 μM of HR. • Example 23: […] Combination of 50 μM DHA and 12.5 μM of ZnCl2. • Example 31: […] Combination of 12.5 μM DHA and 3.125 μM of ZnCl2. Experiments were carried out, according to the procedure described earlier, at various concentrations of DHA along with certain other actives outside the invention viz. BOP (benzoyl peroxide) and SDS (sodium dodecyl sulphate). These actives have been disclosed as additional ingredients in EP0138480 A1. The data below is expressed in % IL-6 inhibition rate in Table-3 below. • Example 33, 34, 35, 36: […] Combination of 50 μM DHA and 12.5 μM of BPO. • Example 43: […] Combination of 12.5 μM DHA and 3.125 μM of BPO. • Example 45, 46, 47, 48: […] Combination of 50 μM DHA and 12.5 μM of SDS. • Example 51: […] Combination of 12.5 μM DHA and 3.125 μM of SDS.

Structure (SMILES) | concentration of IL-6 as a % of that obtained for LPS (% of LPS)
CCCCCCc1ccc(O)cc1O [Example 4, hexyl resorcinol] | 41.1%
CC/C=C\C/C=C\C/C=C\C/C=C\C/C=C\C/C=C\CCC(=O)O [Example 2, docosahexaenoic acid] | 14.7%
CC/C=C\C/C=C\C/C=C\C/C=C\C/C=C\C/C=C\CCC(=O)O [Example 3, docosahexaenoic acid] | 58.5%
CCCCCCc1ccc(O)cc1O [Example 6, hexyl resorcinol] | 41.1%
CCCCCCc1ccc(O)cc1O [Example 7, hexyl resorcinol] | 63.1%
CCCCCCc1ccc(O)cc1O [Example 5, hexyl resorcinol] | 54.5%

same assay, conditions: Table 2, LPS 1 μg/mL, DHA, HR, ZnCl2 alone and combined, concentration per example

Structure (SMILES) | % of LPS (IL-6)
CCCCCCc1ccc(O)cc1O [Example 19, hexyl resorcinol] | 60.3%
CC/C=C\C/C=C\C/C=C\C/C=C\C/C=C\C/C=C\CCC(=O)O [Example 13, docosahexaenoic acid] | 9.9%
[Cl-].[Cl-].[Zn+2] [Example 27, Zinc chloride] | 97.7%
[Cl-].[Cl-].[Zn+2] [Example 28, Zinc chloride] | 91.6%
CC/C=C\C/C=C\C/C=C\C/C=C\C/C=C\C/C=C\CCC(=O)O [Example 16, docosahexaenoic acid] | 63.1%
CCCCCCc1ccc(O)cc1O [Example 20, hexyl resorcinol] | 66.4%
CC/C=C\C/C=C\C/C=C\C/C=C\C/C=C\C/C=C\CCC(=O)O [Example 14, docosahexaenoic acid] | 29.0%
CCCCCCc1ccc(O)cc1O [Example 18, hexyl resorcinol] | 55.4%
CCCCCCc1ccc(O)cc1O [Example 17, hexyl resorcinol] | 43.0%
[Cl-].[Cl-].[Zn+2] [Example 26, Zinc chloride] | 96.3%
[Cl-].[Cl-].[Zn+2] [Example 25, Zinc chloride] | 93.4%
CC/C=C\C/C=C\C/C=C\C/C=C\C/C=C\C/C=C\CCC(=O)O [Example 15, docosahexaenoic acid] | 48.8%

same assay, conditions: Table 3, LPS 1 μg/mL, DHA, BPO, SDS alone and combined, concentration per example

Structure (SMILES) | % of LPS (IL-6)
O=C(OOC(=O)c1ccccc1)c1ccccc1 [Example 39, benzoyl peroxide] | 102.7%
CC/C=C\C/C=C\C/C=C\C/C=C\C/C=C\C/C=C\CCC(=O)O [Example 34, docosahexaenoic acid] | 36.0%
O=C(OOC(=O)c1ccccc1)c1ccccc1 [Example 38, benzoyl peroxide] | 100.6%
CC/C=C\C/C=C\C/C=C\C/C=C\C/C=C\C/C=C\CCC(=O)O [Example 35, docosahexaenoic acid] | 56.8%
CC/C=C\C/C=C\C/C=C\C/C=C\C/C=C\C/C=C\CCC(=O)O [Example 33, docosahexaenoic acid] | 10.7%
O=C(OOC(=O)c1ccccc1)c1ccccc1 [Example 40, benzoyl peroxide] | 95.1%
O=C(OOC(=O)c1ccccc1)c1ccccc1 [Example 37, benzoyl peroxide] | 103.4%
CC/C=C\C/C=C\C/C=C\C/C=C\C/C=C\C/C=C\CCC(=O)O [Example 36, docosahexaenoic acid] | 72.0%

same assay, conditions: Table 3, LPS 1 μg/mL, DHA, BPO, SDS alone and combined, concentration per example, sulphate

Structure (SMILES) | % of LPS (IL-6)
CCCCCCCCCCCCOS(=O)(=O)[O-].[Na+] [Example 46, sodium dodecyl sulphate] | 86.1%
CCCCCCCCCCCCOS(=O)(=O)[O-].[Na+] [Example 48, sodium dodecyl sulphate] | 80.5%
CCCCCCCCCCCCOS(=O)(=O)[O-].[Na+] [Example 47, sodium dodecyl sulphate] | 81.3%
CCCCCCCCCCCCOS(=O)(=O)[O-].[Na+] [Example 45, sodium dodecyl sulphate] | 84.6%
